Results on 15 molecules are retold here after US7541367B2, “3-benzoimidazolyl-pyrazolopyridines useful in treating kinase disorders” (Janssen Pharmaceutica, N.V., priority 2005, dated 2009).

Test [1] has as its target T1, HER2 (Homo sapiens, UniProt P04626).
T1 construct: GST (Glutathione-S-Transferase) (N); HIS6 (N); thrombin cleavage site (N); purchased Proqinase, Freiburg, Germany
Nature of the test: HER2 kinase screening assay (33P-ATP FlashPlate).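 Note: Biotin-poly(GT) 4:1 peptide captured on streptavidin FlashPlate, 33P transfer from γ-ATP read by scintillation counting, lower incorporation means inhibition, 1% DMSO final, 100 µL reaction.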 In kind it is biochemical. As to conditions: GST-HIS6 HER-2 aa 679 to 1255; 10 μM ATP; 1 hr at 30° C.

The target in test [2] is T2, VEGF-R2 (Rattus norvegicus, UniProt O08775).
T2 construct: polyhistidine (N)
Put plainly: VEGF-R2 kinase screening assay (33P-ATP FlashPlate).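 Note: Read-out is ³³P incorporation from ³³P-γ-ATP into biotinylated peptide substrate captured on streptavidin FlashPlate, counted by scintillation, 1% DMSO final, inhibition scaled between per-plate maximum and minimum signals.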 The settings on record: rat VEGF-R2 kinase domain; 10 μM ATP; 1 hr at 30° C. In kind it is biochemical.

Test [3] concerns HCT-116 colon carcinoma. Nature of the test: Cell Proliferation Inhibition Assay (14C-thymidine incorporation), HCT-116.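 Note: proliferation measured as methyl 14C-thymidine uptake into new DNA, counted in 96-well scintillating microplates, compared with DMSO-only control wells.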 In kind it is cell-based. As to conditions: Homo sapiens. In general terms: Incorporation of labelled thymidine or its analogues reports DNA synthesis.
Test [4] addresses T3, CDK1 (Homo sapiens, UniProt P06493).
T3 construct: purchased New England Biolabs, Beverly, Mass; 6020; host or cells: insect cells
Nature of the test: CDK-1 kinase screening assay (33P-ATP FlashPlate). It is filed as biochemical. As to conditions: human CDK1 with cyclin B; 10 μM ATP; 1 hr at 30° C. The protocol:
A kinase reaction mixture was prepared containing 50 mM Tris-HCl pH=8, 10 mM MgCl2, 0.1 mM […], 1 mM DTT, 10 μM ATP, 0.025 μM biotinylated histone-H1 peptide substrate and 0.2 μCuries per well ^33P-γ-ATP (2000-3000 Ci/mmol). 70 μL of the kinase reaction mixture was dispensed into the well of a streptavidin coated FlashPlate™ (Cat. # SMP103, NEN, Boston, Mass.).
Test compound stock in 100% DMSO (1 μL) was added to the wells resulting in a final concentration of 1% DMSO in the reaction with a 100 μL final reaction volume. Each enzyme was diluted in 50 mM Tris-HCl pH=8.0, 0.11% BSA and 30 μL was added to each well to initiate the reaction. The reaction was incubated for one hour at 30° C. At the end of the 1 hr incubation, the reaction was terminated by aspirating the mixture from the plate and washing the wells twice with PBS containing 100 mM EDTA. The biotinylated peptide substrate became immobilized on the Flashplate™ and the incorporation of ^33P-γ-ATP was measured by reading the plate on a scintillation counter. Inhibition of the enzymatic activity was measured by observing a reduced amount of ^33P-γ-ATP incorporated into the immobilized peptide.
The CDK1 enzyme was isolated from insect cells expressing both the human CDK1 catalytic subunit (Accession number NM_001786) and its positive regulatory subunit cyclin B (New England Biolabs, Beverly, Mass.; Cat. # 6020). The assay used 30 ng of the N-terminal biotinylated peptide biotin-[…]-amide (Cyclin dependent kinase 1) per well.
A maximum and minimum signal for the assay was determined on each plate. The percent inhibition of a test compound was calculated according to the formula: […]
For a series of test concentrations, the IC50 was derived by graphing percent inhibition against the log of the concentrations tested for a given compound with results shown in Table 1.
For compounds with multiple values, each value represents a separate assay result.

The subject of test [5] is A375 malignant melanoma. Put plainly: Cell Proliferation Inhibition Assay (14C-thymidine incorporation), A375.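 Note: proliferation measured by radiolabelled thymidine uptake into new DNA, counted in scintillating 96-well plates, compound-treated wells compared with DMSO-only control wells.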 It is filed as cell-based. As to conditions: Homo sapiens, A-375, A375 cells.
The subject of test [6] is HeLa cervical adenocarcinoma. Nature of the test: Cell Proliferation Inhibition Assay (14C-thymidine incorporation), HeLa.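 Note: test compound in DMSO added to cells seeded in scintillating 96-well plates, DMSO-only wells as control, uptake of methyl 14C-thymidine into new DNA counted.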 In kind it is cell-based. The settings on record: Homo sapiens, HeLa cells.
The target in test [7] is T4, Aurora-A (Mus musculus, UniProt P97477).
T4 construct: polyhistidine (N)
T4 sequence (P97477 1-395): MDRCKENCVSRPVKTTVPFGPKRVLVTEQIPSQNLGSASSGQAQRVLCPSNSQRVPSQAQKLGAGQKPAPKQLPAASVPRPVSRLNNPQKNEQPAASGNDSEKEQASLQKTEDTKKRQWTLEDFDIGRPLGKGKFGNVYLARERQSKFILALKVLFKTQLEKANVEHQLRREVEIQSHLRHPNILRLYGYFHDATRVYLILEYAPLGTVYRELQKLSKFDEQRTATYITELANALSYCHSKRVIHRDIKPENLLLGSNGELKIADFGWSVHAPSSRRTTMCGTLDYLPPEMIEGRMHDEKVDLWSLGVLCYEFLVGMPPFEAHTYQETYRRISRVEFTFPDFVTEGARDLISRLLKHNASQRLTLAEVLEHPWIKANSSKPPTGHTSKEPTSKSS
Put plainly: Aurora-A kinase screening assay (33P-ATP FlashPlate).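 Note: His-tagged mouse Aurora-A phosphorylating a biotinylated peptide captured on streptavidin plates, read as 33P uptake by scintillation counting, 1% DMSO, inhibition scaled between per-plate maximum and minimum signals.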 In kind it is biochemical. The settings on record: 10 μM ATP, 1 hr at 30° C.

T3 sequence (P06493 whole entry): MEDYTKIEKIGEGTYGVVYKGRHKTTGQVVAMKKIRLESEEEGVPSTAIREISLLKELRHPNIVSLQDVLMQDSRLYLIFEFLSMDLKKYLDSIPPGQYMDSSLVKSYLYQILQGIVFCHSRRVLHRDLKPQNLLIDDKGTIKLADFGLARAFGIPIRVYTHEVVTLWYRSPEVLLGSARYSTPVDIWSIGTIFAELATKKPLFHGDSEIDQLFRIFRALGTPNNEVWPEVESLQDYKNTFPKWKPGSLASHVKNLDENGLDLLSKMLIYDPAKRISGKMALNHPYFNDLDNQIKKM
T3 sequence (P14635 whole entry partner): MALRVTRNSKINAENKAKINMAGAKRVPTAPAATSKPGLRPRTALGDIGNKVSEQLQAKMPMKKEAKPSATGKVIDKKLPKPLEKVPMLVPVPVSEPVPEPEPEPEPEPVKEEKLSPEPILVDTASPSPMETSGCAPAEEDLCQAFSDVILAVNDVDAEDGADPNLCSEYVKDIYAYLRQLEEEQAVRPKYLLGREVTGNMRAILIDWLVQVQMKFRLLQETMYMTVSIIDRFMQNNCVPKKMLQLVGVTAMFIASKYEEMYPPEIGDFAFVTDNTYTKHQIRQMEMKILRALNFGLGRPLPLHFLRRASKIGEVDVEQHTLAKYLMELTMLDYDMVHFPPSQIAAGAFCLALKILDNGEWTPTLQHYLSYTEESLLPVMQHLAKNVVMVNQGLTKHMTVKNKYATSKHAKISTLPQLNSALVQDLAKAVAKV
T2 sequence (O08775 786-1343): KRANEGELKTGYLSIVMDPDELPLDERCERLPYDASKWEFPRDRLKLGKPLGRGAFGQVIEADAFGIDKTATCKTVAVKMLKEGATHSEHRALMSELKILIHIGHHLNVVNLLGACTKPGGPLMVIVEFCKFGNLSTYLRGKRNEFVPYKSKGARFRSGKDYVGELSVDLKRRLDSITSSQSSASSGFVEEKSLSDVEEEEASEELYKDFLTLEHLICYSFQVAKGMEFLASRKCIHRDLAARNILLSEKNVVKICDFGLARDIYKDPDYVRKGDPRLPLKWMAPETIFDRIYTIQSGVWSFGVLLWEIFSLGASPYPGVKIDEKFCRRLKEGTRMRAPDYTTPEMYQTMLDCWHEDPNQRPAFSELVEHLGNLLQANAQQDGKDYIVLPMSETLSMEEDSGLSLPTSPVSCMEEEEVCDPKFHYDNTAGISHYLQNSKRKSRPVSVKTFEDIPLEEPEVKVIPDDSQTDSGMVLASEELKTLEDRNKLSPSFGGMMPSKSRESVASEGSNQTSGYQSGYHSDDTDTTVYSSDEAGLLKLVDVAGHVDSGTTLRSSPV
T1 sequence (P04626 679-1255): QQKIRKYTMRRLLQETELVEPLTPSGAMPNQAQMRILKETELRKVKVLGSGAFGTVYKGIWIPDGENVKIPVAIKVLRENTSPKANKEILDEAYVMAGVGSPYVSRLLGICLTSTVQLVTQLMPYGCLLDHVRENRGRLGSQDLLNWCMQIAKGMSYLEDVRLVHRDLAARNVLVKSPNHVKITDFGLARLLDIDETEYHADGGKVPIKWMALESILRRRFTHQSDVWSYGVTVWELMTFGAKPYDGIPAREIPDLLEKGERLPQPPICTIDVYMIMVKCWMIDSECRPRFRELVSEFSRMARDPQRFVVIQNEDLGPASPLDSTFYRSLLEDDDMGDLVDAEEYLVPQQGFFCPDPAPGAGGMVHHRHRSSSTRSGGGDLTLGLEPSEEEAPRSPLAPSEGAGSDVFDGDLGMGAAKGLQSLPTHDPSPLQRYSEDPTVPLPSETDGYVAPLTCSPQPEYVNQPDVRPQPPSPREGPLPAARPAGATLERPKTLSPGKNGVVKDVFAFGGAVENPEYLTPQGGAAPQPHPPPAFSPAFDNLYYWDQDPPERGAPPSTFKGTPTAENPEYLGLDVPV

Broadly, the IC50 is the concentration needed to halve the response being measured. Higher therefore signals lower potency. In the case of `CCCCNCc1cncc(-c2cnc3[nH]nc(-c4nc5cc(OC)ccc5[nH]4)c3c2)c1` [Cpd 104, butyl-{5-[3-(5-methoxy-1H-benzoimidazol-2-yl)-1H-pyrazolo[3,4-b]pyridin-5-yl]-pyridin-3-ylmethyl}-amine], the IC50 turned out to be 1880 nM in test [1]; 17.9 nM in test [2]; 52 nM in test [3] (HCT-116 cells); 0.8 nM in test [4]; 39.5 nM in test [5]; 85 nM in test [6]. In test [7], this molecule returned a half-inhibitory concentration (IC50) of 245 nM.
For the molecule `CCCNCc1cncc(-c2cnc3[nH]nc(-c4nc5cc(N6CCN(C)CC6)ccc5[nH]4)c3c2)c1` [Cpd 85, (5-{3-[5-(4-methyl-piperazin-1-yl)-1H-benzoimidazol-2-yl]-1H-pyrazolo[3,4-b]pyridin-5-yl}-pyridin-3-ylmethyl)-propyl-amine], the IC50 was determined as 1840 nM in test [1]; 160 nM in test [2]; 774 nM in test [3] (HCT-116 cells); 1.84 nM in test [4]; 412 nM in test [5]; 692 nM in test [6]. Further, the IC50 in test [7] was determined as 280 nM.
For the molecule `CC(C)(C)NC(=O)c1cccc2[nH]c(-c3n[nH]c4ncc(-c5cncc6ccccc56)cc34)nc12` [Cpd 20, 2-(5-isoquinolin-4-yl-1H-pyrazolo[3,4-b]pyridin-3-yl)-1H-benzoimidazole-4-carboxylic acid tert-butylamide], the IC50 was > 10000 nM in test [1]; ~10000 nM in test [2]; 55 nM in test [3] (HCT-116, HCT-116 cells); 28.6 nM in test [4]; 71.1 nM in test [5]; 167 nM in test [6] (HeLa). For the same molecule, the IC50 in test [7] was ~1000 nM.
Turning to `COCCNCc1cncc(-c2cnc3[nH]nc(-c4nc5cc(N6CCN(C)CC6)ccc5[nH]4)c3c2)c1` [Cpd 86, (2-methoxy-ethyl)-(5-{3-[5-(4-methyl-piperazin-1-yl)-1H-benzoimidazol-2-yl]-1H-pyrazolo[3,4-b]pyridin-5-yl}-pyridin-3-ylmethyl)-amine], the 50% inhibitory concentration (IC50) was 1050 nM in test [1]; ~100 nM in test [2]; 2320 nM in test [3] (HCT-116 cells); 5.17 nM in test [4]; 2490 nM in test [5]; 2290 nM in test [6]. In test [7], half-maximal inhibition (IC50) required 428 nM.
On to `CCN(CC)Cc1cccc2[nH]c(-c3n[nH]c4ncc(-c5cncc6ccccc56)cc34)nc12` [Cpd 5, diethyl-[2-(5-isoquinolin-4-yl-1H-pyrazolo[3,4-b]pyridin-3-yl)-1H-benzoimidazol-4-ylmethyl]-amine], for which the IC50 in test [2] turned out to be 1550 nM; in test [3] (HCT-116, HCT-116 cells), 30.6 nM; in test [5] it was 46.7 nM; in test [6] (HeLa) it was 28.9 nM.
As to `CCNCc1cncc(-c2cnc3[nH]nc(-c4nc5c(COC)cccc5[nH]4)c3c2)c1C` [Cpd 59, ethyl-{5-[3-(4-methoxymethyl-1H-benzoimidazol-2-yl)-1H-pyrazolo[3,4-b]pyridin-5-yl]-4-methyl-pyridin-3-ylmethyl}-amine], the figures for the IC50 in test [2], in test [4] and in test [7] were 4670 nM, 106 nM and 8020 nM, respectively.
For `Cc1cccc2[nH]c(-c3n[nH]c4ncc(-c5cncc6ccccc56)cc34)nc12` [Cpd 2, 4-[3-(4-methyl-1H-benzoimidazol-2-yl)-1H-pyrazolo[3,4-b]pyridin-5-yl]-isoquinoline], the IC50 in test [3] (HCT-116, HCT-116 cells) came to 1640 nM; in test [4], 96.7 nM; in test [5], 1720 nM; in test [6] (HeLa), 3090 nM.
For `CN1CCN(c2ccc3[nH]c(-c4n[nH]c5ncc(-c6cncc(CN7CCCC7)c6)cc45)nc3c2)CC1` [Cpd 87, 3-[5-(4-methyl-piperazin-1-yl)-1H-benzoimidazol-2-yl]-5-(5-pyrrolidin-1-ylmethyl-pyridin-3-yl)-1H-pyrazolo[3,4-b]pyridine], the half-maximal inhibitory concentration (IC50) stood at 12100 nM in test [1]; 113 nM in test [2]; 1050 nM in test [3] (HCT-116, HCT-116 cells); 29.3 nM in test [4]; 807 nM in test [5]; 2150 nM in test [6] (HeLa). In test [7], the 50% inhibitory concentration (IC50) amounted to 445 nM.
Regarding `CCN(CC)C(=O)c1cccc2[nH]c(-c3n[nH]c4ncc(-c5cncc6ccccc56)cc34)nc12` [Cpd 19, 2-(5-isoquinolin-4-yl-1H-pyrazolo[3,4-b]pyridin-3-yl)-1H-benzoimidazole-4-carboxylic acid diethylamide], the 50% inhibitory concentration (IC50) in test [1] was ~100000 nM; in test [2], ~10000 nM; in test [3] (HCT-116, HCT-116 cells), 1830 nM; in test [4], 53.4 nM; in test [5], 1570 nM; in test [6] (HeLa), 975 nM. Besides, the IC50 in test [7] is > 1000 nM.
In the case of `CC(C)NC(=O)c1cccc2[nH]c(-c3n[nH]c4ncc(-c5cncc6ccccc56)cc34)nc12` [Cpd 18, 2-(5-isoquinolin-4-yl-1H-pyrazolo[3,4-b]pyridin-3-yl)-1H-benzoimidazole-4-carboxylic acid isopropylamide], the concentration for half-maximal inhibition (IC50) in test [1] is > 10000 nM; in test [2] it was 378 nM; in test [3] (HCT-116, HCT-116 cells), 41.5 nM; in test [4], 3.95 nM; in test [5], 64.7 nM; in test [6] (HeLa), 35.2 nM. For the same molecule, the half-inhibitory concentration (IC50) in test [7] is > 100 nM.
In the case of `COC(=O)c1cccc2[nH]c(-c3n[nH]c4ncc(-c5cccnc5)cc34)nc12` [Cpd 93, 2-(5-pyridin-3-yl-1H-pyrazolo[3,4-b]pyridin-3-yl)-1H-benzoimidazole-4-carboxylic acid methyl ester], the half-maximal inhibitory concentration (IC50) in test [3] (HCT-116, HCT-116 cells) was ≥ 100000 nM; in test [5], ≥ 100000 nM; in test [6] (HeLa), ≥ 100000 nM.
In the case of `c1ccc2c(-c3cnc4[nH]nc(-c5nc6ccccc6[nH]5)c4c3)cncc2c1` [Cpd 1, 4-[3-(1H-benzoimidazol-2-yl)-1H-pyrazolo[3,4-b]pyridin-5-yl]-isoquinoline], the concentration for half-maximal inhibition (IC50) in test [1] turned out to be 141 nM; in test [2], 1460 nM; in test [4], 23.3 nM.
As to `COC(=O)c1ccc2[nH]c(-c3n[nH]c4ncc(-c5cccnc5)cc34)nc2c1` [Cpd 91, 2-(5-pyridin-3-yl-1H-pyrazolo[3,4-b]pyridin-3-yl)-3H-benzoimidazole-5-carboxylic acid methyl ester], the half-maximal inhibitory concentration (IC50) in test [3] (HCT-116, HCT-116 cells) came out at 386 nM; in test [4] it was 11.2 nM; in test [5], 428 nM; in test [6] (HeLa), 826 nM.
In the case of `COCc1cccc2[nH]c(-c3n[nH]c4ncc(Br)cc34)nc12` [Cpd 11, 5-bromo-3-(4-methoxymethyl-1H-benzoimidazol-2-yl)-1H-pyrazolo[3,4-b]pyridine], the concentration for half-maximal inhibition (IC50) was 916 nM in test [2]; 866 nM in test [3] (HCT-116, HCT-116 cells); 358 nM in test [4]; 866 nM in test [5]; 1840 nM in test [6] (HeLa); ~10000 nM in test [7].
Consider `CN1CCN(c2ccc3[nH]c(-c4n[nH]c5ncc(Br)cc45)nc3c2)CC1` [Cpd 30, 5-bromo-3-[5-(4-methyl-piperazin-1-yl)-1H-benzoimidazol-2-yl]-1H-pyrazolo[3,4-b]pyridine], for which the IC50 is > 10000 nM in test [1]; 238 nM in test [2]; 2500 nM in test [3] (HCT-116, HCT-116 cells); 425 nM in test [4]; 1700 nM in test [5]; 3100 nM in test [6] (HeLa). Besides, in test [7], the IC50 was ~1000 nM.
